Test results from ChEMBL document CHEMBL1799929, “Efficient sequential synthesis of PET Probes of the COX-2 inhibitor [11C]celecoxib and its major metabolite [11C]SC-62807 and in vivo PET evaluation” (Bioorg Med Chem, 2011).

Key:
Type in all cases: ADME, organism-based
Blood [1] = test: Drug uptake in Sprague-Dawley rat blood at 0.29 to 1.3 nmol/body, iv after 60 mins by gamma counting based PET imaging method; conditions: in vivo, 1 h
Blood [2] = test: Drug uptake in Sprague-Dawley rat blood at 0.29 to 1.3 nmol/body, iv after 40 mins by gamma counting based PET imaging method; conditions: in vivo
Liver [3] = test: Drug uptake in Sprague-Dawley rat liver at 0.29 to 1.3 nmol/body, iv after 10 mins by gamma counting based PET imaging method; conditions: in vivo
Intestine = test: Drug uptake in Sprague-Dawley rat intestine at 0.20 to 1.4 nmol/body, iv after 60 mins by gamma counting based PET imaging method; conditions: in vivo, 1 h
[4] = Drug uptake in Sprague-Dawley rat urinary bladder at 0.20 to 1.4 nmol/body, iv after 60 mins by gamma counting based PET imaging method; conditions: in vivo, 1 h
Liver [5] = test: Drug uptake in Sprague-Dawley rat liver at 0.20 to 1.4 nmol/body, iv after 2 mins by gamma counting based PET imaging method; conditions: in vivo
Blood [6] = test: Drug uptake in Sprague-Dawley rat blood at 0.20 to 1.4 nmol/body, iv within 40 mins by gamma counting based PET imaging method; conditions: in vivo
Liver [7] = test: Drug uptake in Sprague-Dawley rat liver at 0.20 to 1.4 nmol/body, iv within 40 mins by gamma counting based PET imaging method; conditions: in vivo
Kidney = test: Drug uptake in Sprague-Dawley rat kidney at 0.20 to 1.4 nmol/body, iv after 2 mins by gamma counting based PET imaging method; conditions: in vivo
[8] = Drug uptake in Sprague-Dawley rat bile at 0.20 to 1.4 nmol/body, iv within 40 mins by gamma counting based PET imaging method; conditions: in vivo
[9] = Drug uptake in Sprague-Dawley rat urine at 0.20 to 1.4 nmol/body, iv within 40 mins by gamma counting based PET imaging method; conditions: in vivo

Drug uptake (Blood [1]) [%ID/ml] | Drug uptake (Blood [2]) | Drug uptake (Liver [3]) | Drug uptake (Intestine) [%ID] | Drug uptake [4] [%ID] | Drug uptake (Liver [5]) [%ID] | Drug uptake (Blood [6]) | Drug uptake (Liver [7]) | Drug uptake (Kidney) [%ID] | Drug uptake [8] | Drug uptake [9] | SMILES
> 1 | Active | Active | – | – | – | – | – | – | – | – | [11CH3]c1ccc(-c2cc(C(F)(F)F)nn2-c2ccc(S(N)(=O)=O)cc2)cc1
– | – | – | 58 | 22 | 35 | Active | Active | 14 | Active | Active | NS(=O)(=O)c1ccc(-n2nc(C(F)(F)F)cc2-c2ccc([11C](=O)O)cc2)cc1
